Experiments:
[1] = system: yeast, mould; assay: Yeast & Mould Count of treated whole red chilli; settings: whole red chilli 12 kg's
Procedure: This experiment illustrates the treatment of aerobic micro-organisms, yeast, mould, coliform, E. coli, Salmonella and fat soluble metabolites contaminated whole red chilli.
The data presented in Table-2 illustrate the efficacy of the present disclosure in detoxifying contaminated whole red chillies. […].
The red chillies were exposed with Trioxygen for 2 minutes. The products were put under pressure of trioxygen gas for a span of 9 minutes to 26 minutes. Based on the commodity characteristics, the exposure of trioxygen gas was repeated 10 times. Trioxygen gas having a capacity 500 g/h was generated by the trioxygen generator (on site) of the system with a constant oxygen flow rate and delivered to the decontamination chamber through silicon tube. The whole red chillies were then treated to heated air.

[2] = system: weevils and weevil eggs; assay: Shelf-Life Assessment of Wheat; set-up: key to Visual observation: Pin holes on grain / Visual observation: Powder at the bottom of bag / Weevils/Insects: ✓ Not observed; x Observed; settings: for Visual observation: Pin holes on grain / Visual observation: Powder at the bottom of bag / Weevils/Insects: Treated sample
Procedure: (§1) The data presented in Table-5 illustrates the efficiency of the system of the present disclosure in pre-conditioning and deactivation of weevils and weevil eggs results in delayed occurrence of insect infestation in grains.
(§2) Grains such as Dry corn, Groundnut, Rice & Wheat were separately pre-conditioned and decontaminated in the system of the present disclosure. Grains were exposed to trioxygen gas for up to 5 minutes. The products were put under pressure of trioxygen gas for a span of 9 minutes to 26 minutes. Trioxygen gas having capacity 500 g/h was generated by the trioxygen generator of the system (on site) with a constant oxygen flow rate and delivered to the decontamination chamber through silicon tube. All products were treated with hot air and then analyzed for the presence of the weevils and weevil eggs the results obtained are summarized in Table-5.

[3] = Pesticide residue in treated whole red chilli: Novaluron; settings: whole red chilli 12 kg's, Trial 1; HOCL and Trioxygen simultaneously
Source text: This experiment illustrates the treatment of whole red chilli contaminated with pesticide residues.
The data presented in Table-6 illustrates the efficacy of the present disclosure in detoxifying contaminated whole red chillies. Sets of whole red chillies of 12 kg's contaminated with pesticides like Azoxystrobin, Imidacloprid Novaluron and Myclobutanil were used for the experiment. An inert gas (Nitrogen & Carbon-di-oxide) were introduced into the chamber filled with the material to drive out existing air and oxygen in the chamber. Pre-conditioning was carried out with HOCL and trioxygen being introduced simultaneously in decontamination chamber with faster decontamination process in the system with a shorter timeline protocol.
The red chillies were exposed with HOCL and Trioxygen simultaneously for 2 minutes. The products were put under pressure of 2 bar of trioxygen gas for a span of 9 minutes to 26 minutes. Based on the commodity characteristics, the exposure of trioxygen gas was repeated 10 times. Trioxygen gas having a capacity 500 g/h was generated by the trioxygen generator (on site) of the system with a constant oxygen flow rate and delivered to the decontamination chamber through silicon tube. The whole red chillies were then treated to heated air.

[4] = C17H12O6 content of treated corn
Procedure: The data presented in Table-4 illustrates the efficiency of the system of the present disclosure in detoxifying pre-conditioned contaminated corn.
Three sets of C17H12O6 contaminated 70 kg's of corn were separately decontaminated in the system of the present disclosure. In this case, corn samples were pre-conditioned with a pre-conditioning liquid and exposed to trioxygen gas for up to 5 minutes. The products were put under pressure of trioxygen gas for a span of 9 minutes to 26 minutes. Based on the commodity characteristics, the exposure of trioxygen gas was repeated 20 times. Trioxygen gas having capacity 500 g/h was generated by the trioxygen generator of the system (on site) with a constant oxygen flow rate and delivered to the decontamination chamber through silicon tube. All 3 sets of products were air dried and then analyzed for the presence of the contaminant and the results obtained are summarized in Table-4

[5] = system: weevils and weevil eggs; assay: Shelf-Life Assessment of Corn; set-up: key to Visual observation: Powder at the bottom of bag / Weevils/Insects / Visual observation: Pin holes on grain: ✓ Not observed; x Observed; settings: for Visual observation: Pin holes on grain / Visual observation: Powder at the bottom of bag / Weevils/Insects: Treated sample
Procedure: as §1, §2

Q: With `O=[O+][O-]` [Trioxygen] as the compound, how does the “Yeast & Mould Count, % Reduction” value ([1]; Trial 1) read?
A: Its value is 73%.

Q: What about the “Yeast & Mould Count, Results After Treatment” value ([1]; Trial 1, before treatment 1.57 × 10^7 cfu/g) of the same compound?
A: The value was 4.18 × 10^6 cfu/g.

Q: And the “Yeast & Mold Count, % Reduction” value ([1]; Trial 2)?
A: The value was 83%.

Q: What about the “Yeast & Mold Count, Results After Treatment” value ([1]; Trial 2, before treatment 1.7 × 10^7 cfu/g) of the same compound?
A: The value was 2.9 × 10^6 cfu/g.

Q: What about the “Yeast & Mold Count, % Reduction” value ([1]; Trial 3) of the same compound?
A: Its value is 99%.

Q: And the “Yeast & Mold Count, Results After Treatment” value ([1]; Trial 3, before treatment 3.36 × 10^7 cfu/g)?
A: The value was 1.87 × 10^5 cfu/g.

Q: And the “No weevil infestation in system treated samples up to” value [2]?
A: The value was “up to 3 months”.

Q: And the “Treatment effective in delaying infestation up to” value [2]?
A: The value was “up to 6 months”.

Q: What about the “Remarks on Weevils/Insects, Treated” value ([2]; Post 1.5 Months) of the same compound?
A: Its value is “No weevils/insects”.

Q: What about the “Remarks on Weevils/Insects, Treated” value ([2]; Post 2 Months) of the same compound?
A: Its value is “No weevils/insects”.

Q: What about the “Remarks on Weevils/Insects, Treated” value ([2]; Post 3 Months) of the same compound?
A: Its value is “No weevils/insects”.

Q: And the “Remarks on Weevils/Insects, Treated: cream/buff colour insect (3 mm) observed alive” value ([2]; Post 5 Months)?
A: Its value is 2 cream/buff colour.

Q: What about the “Remarks on Weevils/Insects, Treated: cream/buff colour insect (3 mm) observed alive” value ([2]; Post 6 Months) of the same compound?
A: The value was 3 cream/buff colour.

Q: What about the “Remarks on Weevils/Insects, Treated: cream/buff colour insect (3 mm) observed alive” value ([2]; Post 7 Months) of the same compound?
A: The value was 3 cream/buff colour.

Q: And the “Visual observation: Pin holes on grain” value ([2]; 1.5 Months)?
A: The value was “✓”.

Q: And the “Visual observation: Powder at the bottom of bag” value (“Visual observation: Powder” for short) ([2]; 1.5 Months)?
A: The value was “✓”.

Q: And the Weevils/Insects ([2]; 1.5 Months)?
A: Its Weevils/Insects is “✓”.

Q: What about the “Visual observation: Pin holes on grain” value ([2]; 2 Months) of the same compound?
A: The value was “✓”.

Q: And the “Visual observation: Powder” value ([2]; 2 Months)?
A: Its value is “✓”.

Q: And the Weevils/Insects ([2]; 2 Months)?
A: Its Weevils/Insects is “✓”.

Q: What about the “Visual observation: Pin holes on grain” value ([2]; 3 Months) of the same compound?
A: The value was “✓”.

Q: And the “Visual observation: Powder” value ([2]; 3 Months)?
A: The value was “✓”.

Q: What about the Weevils/Insects ([2]; 3 Months) of the same compound?
A: The Weevils/Insects was “✓”.

Q: And the “Visual observation: Pin holes on grain” value ([2]; 5 Months)?
A: The value was “✓”.

Q: What about the “Visual observation: Powder” value ([2]; 5 Months) of the same compound?
A: The value was “✓”.

Q: And the Weevils/Insects ([2]; 5 Months)?
A: Its Weevils/Insects is “x”.

Q: What about the “Visual observation: Pin holes on grain” value ([2]; 6 Months) of the same compound?
A: The value was “✓”.

Q: And the “Visual observation: Powder” value ([2]; 6 Months)?
A: Its value is “✓”.

Q: What about the Weevils/Insects ([2]; 6 Months) of the same compound?
A: Its Weevils/Insects is “x”.

Q: And the “Visual observation: Pin holes on grain” value ([2]; 7 Months)?
A: The value was “✓”.

Q: And the “Visual observation: Powder” value ([2]; 7 Months)?
A: The value was “✓”.

Q: And the Weevils/Insects ([2]; 7 Months)?
A: Its Weevils/Insects is “x”.

Q: What about the “Number of weevils in treated sample compared to those in control, times less” value ([2]; at month 5) of the same compound?
A: Its value is 4 times.

Q: And the “Novaluron, % Reduction” value [3]?
A: Its value is 100%.

Q: What about the “C17H12O6, % Reduction” value ([4]; Sr. No. 1, 70 kg's) of the same compound?
A: The value was 100%.

Q: And the “C17H12O6, % Reduction” value ([4]; Sr. No. 2, 70 kg's)?
A: The value was 85%.

Q: What about the “C17H12O6, % Reduction” value ([4]; Sr. No. 3, 70 kg's) of the same compound?
A: Its value is 100%.

Q: And the “No weevil infestation in system treated samples up to” value [5]?
A: Its value is “up to 6 months”.

Q: What about the “Treatment effective in delaying infestation up to” value [5] of the same compound?
A: The value was “up to 6 months”.

Q: And the “Remarks on Weevils/Insects, Treated” value ([5]; Post 1.5 Months)?
A: The value was “No weevils/insects”.

Q: And the “Remarks on Weevils/Insects, Treated” value ([5]; Post 2 Months)?
A: The value was “No weevils/insects”.

Q: And the “Remarks on Weevils/Insects, Treated” value ([5]; Post 3 Months)?
A: Its value is “No weevils/insects”.

Q: And the “Remarks on Weevils/Insects, Treated” value ([5]; Post 5 Months)?
A: The value was “No weevils/insects”.

Q: What about the “Remarks on Weevils/Insects, Treated: cream coloured insect observed alive” value ([5]; Post 6 Months) of the same compound?
A: Its value is 1 cream coloured.

Q: And the “Remarks on Weevils/Insects, Treated: cream coloured insect observed alive” value ([5]; Post 7 Months)?
A: The value was 3 cream coloured.

Q: What about the “Visual observation: Pin holes on grain” value ([5]; 1.5 Months) of the same compound?
A: Its value is “✓”.

Q: And the “Visual observation: Powder” value ([5]; 1.5 Months)?
A: The value was “✓”.

Q: What about the Weevils/Insects ([5]; 1.5 Months) of the same compound?
A: Its Weevils/Insects is “✓”.

Q: And the “Visual observation: Pin holes on grain” value ([5]; 2 Months)?
A: Its value is “✓”.

Q: And the “Visual observation: Powder” value ([5]; 2 Months)?
A: Its value is “✓”.

Q: What about the Weevils/Insects ([5]; 2 Months) of the same compound?
A: The Weevils/Insects was “✓”.

Q: What about the “Visual observation: Pin holes on grain” value ([5]; 3 Months) of the same compound?
A: Its value is “✓”.

Q: And the “Visual observation: Powder” value ([5]; 3 Months)?
A: Its value is “✓”.

Q: What about the Weevils/Insects ([5]; 3 Months) of the same compound?
A: The Weevils/Insects was “✓”.

Q: And the “Visual observation: Pin holes on grain” value ([5]; 5 Months)?
A: Its value is “✓”.

Q: What about the “Visual observation: Powder” value ([5]; 5 Months) of the same compound?
A: Its value is “✓”.

Q: And the Weevils/Insects ([5]; 5 Months)?
A: The Weevils/Insects was “✓”.

Q: And the “Visual observation: Pin holes on grain” value ([5]; 6 Months)?
A: Its value is “✓”.

Q: And the “Visual observation: Powder” value ([5]; 6 Months)?
A: The value was “✓”.

Q: What about the Weevils/Insects ([5]; 6 Months) of the same compound?
A: The Weevils/Insects was “x”.

Q: And the “Visual observation: Pin holes on grain” value ([5]; 7 Months)?
A: The value was “✓”.

Q: And the “Visual observation: Powder” value ([5]; 7 Months)?
A: The value was “✓”.

Q: What about the Weevils/Insects ([5]; 7 Months) of the same compound?
A: The Weevils/Insects was “x”.

Q: And the “Number of weevils in treated sample compared to those in control, times less” value ([5]; at month 7)?
A: The value was 5 times.

Q: And the “Number of weevils in treated sample compared to those in control, times less” value ([5]; at month 8)?
A: The value was 1.5 times.

Q: And the “Number of weevils in treated sample compared to those in control” value ([5]; at month 9)?
A: The value was “No difference”.

Reference: patent US20250107543A1, “TREATMENT OF AGRICULTURAL, FOOD AND RELATED PRODUCTS FOR ELIMINATING CONTAMINANTS AND ENCHANCING SHELF-LIFE” (priority 2022, published 2025)
